Legend:
Format in all cases: in vivo
barnyard grass [1] = test: Test Example 1: weedkilling efficacy, preemergent weed treatment in the submerged state; A: barnyard grass; details: treatment dosage 252 g/ha
Procedure, shortened: (§1)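 Pre-emergence application onto floodwater (4 cm, alluvial soil) on the day of sowing, dose expressed as g/ha from diluted emulsion formulation. Weeds sown with 2.5-leaf transplanted rice as crop; plants held at 25–30 °C in greenhouse and scored against assessment criteria after 3 weeks.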

soybean [2] = test: Test Example 3: soil treatment, effect on crop; d: soybean; details: treatment dosage 315 g/ha
Procedure, shortened: (§2)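 Crop and weed responses were judged three weeks after a uniform surface spray of the water-diluted emulsion at the given g/ha rate. Seeds sat beneath about 1.5 cm of sterilized diluvial soil, and boxes stood in a greenhouse at 25 to 30° C.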

birds-eye speedwell [3] = test: Test Example 3: weedkilling efficacy through soil treatment; p: birds-eye speedwell; details: treatment dosage 315 g/ha
Procedure, shortened: as §2

crabgrass [4] = test: Test Example 3: weedkilling efficacy through soil treatment; D: crabgrass; details: treatment dosage 315 g/ha
Procedure, shortened: as §2

black-grass [5] = test: Test Example 3: weedkilling efficacy through soil treatment; H: black-grass; details: treatment dosage 315 g/ha
Procedure, shortened: as §2

redroot pigweed [6] = test: Test Example 4: weedkilling efficacy by foliar treatment; L: redroot pigweed; details: treatment dosage 315 g/ha
Procedure, shortened: (§3)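 Seeds are spot-sown into sterilized diluvial soil and covered with about 1.5 cm of soil. After 14 days' greenhouse growth at 25 to 30° C, plants are sprayed on stems and leaves with diluted emulsion at the stated g/ha rate, then scored at 3 weeks.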

beet [7] = test: Test Example 4: foliar treatment, effect on crop; f: beet; details: treatment dosage 315 g/ha
Procedure, shortened: as §3

fig-leafed goosefoot [8] = test: Test Example 4: weedkilling efficacy by foliar treatment; M: fig-leafed goosefoot; details: treatment dosage 315 g/ha
Procedure, shortened: as §3

directly sown rice [9] = test: Test Example 4: foliar treatment, effect on crop; b: directly sown rice; details: treatment dosage 315 g/ha
Procedure, shortened: as §3

barnyard grass [10] = test: Test Example 2: weedkilling efficacy, growth period weed treatment in the submerged state; A: barnyard grass; details: treatment dosage 252 g/ha
Procedure, shortened: (§4)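 Weeds treated at the 1-2 leaf stage by application of diluted emulsion onto floodwater (4 cm depth, alluvial soil) at specified g/ha. Grown in greenhouse at 25 to 30° C; herbicidal effect rated three weeks after treatment.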

Indian mallow [11] = test: Test Example 3: weedkilling efficacy through soil treatment; K: Indian mallow; details: treatment dosage 315 g/ha
Procedure, shortened: as §2

wheat [12] = test: Test Example 4: foliar treatment, effect on crop; e: wheat; details: treatment dosage 315 g/ha
Procedure, shortened: as §3

green foxtail [13] = test: Test Example 4: weedkilling efficacy by foliar treatment; E: green foxtail; details: treatment dosage 315 g/ha
Procedure, shortened: as §3

redroot pigweed [14] = test: Test Example 3: weedkilling efficacy through soil treatment; L: redroot pigweed; details: treatment dosage 315 g/ha
Procedure, shortened: as §2

catchweed [15] = test: Test Example 3: weedkilling efficacy through soil treatment; O: catchweed; details: treatment dosage 315 g/ha
Text: Weedkilling Efficacy Test Through Soil Treatment
Sterilized diluvial soil was introduced into 21 cm long, 13 cm wide, 7 cm deep plastic boxes, and seeds of crabgrass, green foxtail, barnyard grass, wild oat, black-grass, Italian ryegrass, common wind-grass, Indian mallow, redroot pigweed, fig-leafed goosefoot, chickweed, catchweed, birds-eye speedwell, corn, soybean, rice, wheat, beet and rapeseed were each spot-sown, and covered with about 1.5 cm of soil. Next, emulsions of compounds of the present invention prepared according to compounding example 2 were diluted with water to give the specified dosages, and applied uniformly onto the soil surface with a small sprayer. The plants were grown by placing the plastic boxes in a greenhouse at 25 to 30° C., and 3 weeks after the pesticide treatment the effect on each type of plant was investigated on the basis of the assessment criteria of test example 1.
A: barnyard grass, B: bulrush, C: oval-leafed pondweed, D: crabgrass, E: green foxtail, F: barnyard grass, G: wild oat, H: black-grass, I: Italian ryegrass, J: common wind-grass, K: Indian mallow, L: redroot pigweed, M: fig-leafed goosefoot, N: chickweed, O: catchweed, p: birds-eye speedwell, a: transplanted rice, b: directly sown rice, c: corn, d: soybean, e: wheat, f: beet, g: rapeseed
Further, pesticide dosage (g/ha) indicates the concentration regulated such that treatment was with only the stated number of grams (g), when calculated per hectare (ha).

wheat [16] = test: Test Example 3: soil treatment, effect on crop; e: wheat; details: treatment dosage 315 g/ha
Procedure, shortened: as §2

crabgrass [17] = test: Test Example 4: weedkilling efficacy by foliar treatment; D: crabgrass; details: treatment dosage 315 g/ha
Procedure, shortened: as §3

green foxtail [18] = test: Test Example 3: weedkilling efficacy through soil treatment; E: green foxtail; details: treatment dosage 315 g/ha
Procedure, shortened: as §2

corn [19] = test: Test Example 4: foliar treatment, effect on crop; c: corn; details: treatment dosage 315 g/ha
Procedure, shortened: as §3

bulrush [20] = test: Test Example 1: weedkilling efficacy, preemergent weed treatment in the submerged state; B: bulrush; details: treatment dosage 252 g/ha
Procedure, shortened: as §1

oval-leafed pondweed [21] = test: Test Example 1: weedkilling efficacy, preemergent weed treatment in the submerged state; C: oval-leafed pondweed; details: treatment dosage 252 g/ha
Procedure, shortened: as §1

chickweed [22] = test: Test Example 4: weedkilling efficacy by foliar treatment; N: chickweed; details: treatment dosage 315 g/ha
Procedure, shortened: as §3

Indian mallow [23] = test: Test Example 4: weedkilling efficacy by foliar treatment; K: Indian mallow; details: treatment dosage 315 g/ha
Procedure, shortened: as §3

corn [24] = test: Test Example 3: soil treatment, effect on crop; c: corn; details: treatment dosage 315 g/ha
Procedure, shortened: as §2

black-grass [25] = test: Test Example 4: weedkilling efficacy by foliar treatment; H: black-grass; details: treatment dosage 315 g/ha
Procedure, shortened: as §3

soybean [26] = test: Test Example 4: foliar treatment, effect on crop; d: soybean; details: treatment dosage 315 g/ha
Procedure, shortened: as §3

oval-leafed pondweed [27] = test: Test Example 2: weedkilling efficacy, growth period weed treatment in the submerged state; C: oval-leafed pondweed; details: treatment dosage 252 g/ha
Procedure, shortened: as §4

directly sown rice [28] = test: Test Example 3: soil treatment, effect on crop; b: directly sown rice; details: treatment dosage 315 g/ha
Procedure, shortened: as §2

catchweed [29] = test: Test Example 4: weedkilling efficacy by foliar treatment; O: catchweed; details: treatment dosage 315 g/ha
Procedure, shortened: as §3

bulrush [30] = test: Test Example 2: weedkilling efficacy, growth period weed treatment in the submerged state; B: bulrush; details: treatment dosage 252 g/ha
Procedure, shortened: as §4

chickweed [31] = test: Test Example 3: weedkilling efficacy through soil treatment; N: chickweed; details: treatment dosage 315 g/ha
Procedure, shortened: as §2

Italian ryegrass [32] = test: Test Example 4: weedkilling efficacy by foliar treatment; I: Italian ryegrass; details: treatment dosage 315 g/ha
Procedure, shortened: as §3

Italian ryegrass [33] = test: Test Example 3: weedkilling efficacy through soil treatment; I: Italian ryegrass; details: treatment dosage 315 g/ha
Procedure, shortened: as §2

beet [34] = test: Test Example 3: soil treatment, effect on crop; f: beet; details: treatment dosage 315 g/ha
Procedure, shortened: as §2

transplanted rice = test: Test Example 1: preemergent weed treatment in the submerged state, effect on crop; a: transplanted rice; details: treatment dosage 252 g/ha
Procedure, shortened: as §1

birds-eye speedwell [35] = test: Test Example 4: weedkilling efficacy by foliar treatment; p: birds-eye speedwell; details: treatment dosage 315 g/ha
Procedure, shortened: as §3

fig-leafed goosefoot [36] = test: Test Example 3: weedkilling efficacy through soil treatment; M: fig-leafed goosefoot; details: treatment dosage 315 g/ha
Procedure, shortened: as §2

`CC1=C(c2ccccc2)C(=O)N(C(C)(C)C(=O)Nc2nc(-c3ccccc3)ns2)CO1` [B-1-17] was tested. Which “A (barnyard grass) weedkilling efficacy grade” value (barnyard grass [1]) did it give?
Its value is 5 (weed kill ratio 90% or more, (practically complete withering)).

And the “d (soybean) effect on crop grade” value (soybean [2])?
Its value is 0 (weed kill ratio 5% or less (practically no effect)).

What about the “P (birds-eye speedwell) weedkilling efficacy grade” value (birds-eye speedwell [3]) of the same compound?
Its value is 5 (weed kill ratio 90% or more, (practically complete withering)).

What about the “D (crabgrass) weedkilling efficacy grade” value (crabgrass [4]) of the same compound?
The value was 5 (weed kill ratio 90% or more, (practically complete withering)).

What about the “H (black-grass) weedkilling efficacy grade” value (black-grass [5]) of the same compound?
Its value is 5 (weed kill ratio 90% or more, (practically complete withering)).

And the “L (redroot pigweed) weedkilling efficacy grade” value (redroot pigweed [6])?
Its value is 5 (weed kill ratio 90% or more, (practically complete withering)).

And the “f (beet) effect on crop grade” value (beet [7])?
Its value is 0 (weed kill ratio 5% or less (practically no effect)).

What about the “M (fig-leafed goosefoot) weedkilling efficacy grade” value (fig-leafed goosefoot [8]) of the same compound?
The value was 4 (weed kill ratio 70% or more, less than 90%).

And the “b (directly sown rice) effect on crop grade” value (directly sown rice [9])?
The value was 4 (weed kill ratio 70% or more, less than 90%).

And the “A (barnyard grass) weedkilling efficacy grade” value (barnyard grass [10])?
The value was 5 (weed kill ratio 90% or more, (practically complete withering)).

What about the “K (Indian mallow) weedkilling efficacy grade” value (Indian mallow [11]) of the same compound?
The value was 0 (weed kill ratio 5% or less (practically no effect)).

What about the “e (wheat) effect on crop grade” value (wheat [12]) of the same compound?
Its value is 0 (weed kill ratio 5% or less (practically no effect)).

What about the “E (green foxtail) weedkilling efficacy grade” value (green foxtail [13]) of the same compound?
Its value is 5 (weed kill ratio 90% or more, (practically complete withering)).

What about the “L (redroot pigweed) weedkilling efficacy grade” value (redroot pigweed [14]) of the same compound?
Its value is 4 (weed kill ratio 70% or more, less than 90%).

What about the “O (catchweed) weedkilling efficacy grade” value (catchweed [15]) of the same compound?
The value was 5 (weed kill ratio 90% or more, (practically complete withering)).

What about the “e (wheat) effect on crop grade” value (wheat [16]) of the same compound?
Its value is 3 (weed kill ratio 40% or more, less than 70%).

What about the “D (crabgrass) weedkilling efficacy grade” value (crabgrass [17]) of the same compound?
Its value is 5 (weed kill ratio 90% or more, (practically complete withering)).

What about the “E (green foxtail) weedkilling efficacy grade” value (green foxtail [18]) of the same compound?
Its value is 5 (weed kill ratio 90% or more, (practically complete withering)).

And the “c (corn) effect on crop grade” value (corn [19])?
The value was 5 (weed kill ratio 90% or more, (practically complete withering)).

And the “B (bulrush) weedkilling efficacy grade” value (bulrush [20])?
The value was 5 (weed kill ratio 90% or more, (practically complete withering)).

And the “C (oval-leafed pondweed) weedkilling efficacy grade” value (oval-leafed pondweed [21])?
The value was 5 (weed kill ratio 90% or more, (practically complete withering)).

What about the “N (chickweed) weedkilling efficacy grade” value (chickweed [22]) of the same compound?
The value was 3 (weed kill ratio 40% or more, less than 70%).

And the “K (Indian mallow) weedkilling efficacy grade” value (Indian mallow [23])?
Its value is 5 (weed kill ratio 90% or more, (practically complete withering)).

What about the “c (corn) effect on crop grade” value (corn [24]) of the same compound?
The value was 0 (weed kill ratio 5% or less (practically no effect)).

And the “H (black-grass) weedkilling efficacy grade” value (black-grass [25])?
Its value is 5 (weed kill ratio 90% or more, (practically complete withering)).

What about the “d (soybean) effect on crop grade” value (soybean [26]) of the same compound?
The value was 0 (weed kill ratio 5% or less (practically no effect)).

What about the “C (oval-leafed pondweed) weedkilling efficacy grade” value (oval-leafed pondweed [27]) of the same compound?
Its value is 4 (weed kill ratio 70% or more, less than 90%).

And the “b (directly sown rice) effect on crop grade” value (directly sown rice [28])?
Its value is 0 (weed kill ratio 5% or less (practically no effect)).

And the “O (catchweed) weedkilling efficacy grade” value (catchweed [29])?
Its value is 4 (weed kill ratio 70% or more, less than 90%).

What about the “B (bulrush) weedkilling efficacy grade” value (bulrush [30]) of the same compound?
Its value is 5 (weed kill ratio 90% or more, (practically complete withering)).

And the “N (chickweed) weedkilling efficacy grade” value (chickweed [31])?
Its value is 3 (weed kill ratio 40% or more, less than 70%).

What about the “I (Italian ryegrass) weedkilling efficacy grade” value (Italian ryegrass [32]) of the same compound?
Its value is 1 (weed kill ratio 5% or more, less than 20%).

And the “I (Italian ryegrass) weedkilling efficacy grade” value (Italian ryegrass [33])?
The value was 5 (weed kill ratio 90% or more, (practically complete withering)).

And the “f (beet) effect on crop grade” value (beet [34])?
The value was 0 (weed kill ratio 5% or less (practically no effect)).

What about the “a (transplanted rice) effect on crop grade” value (transplanted rice) of the same compound?
The value was 0 (weed kill ratio 5% or less (practically no effect)).

And the “P (birds-eye speedwell) weedkilling efficacy grade” value (birds-eye speedwell [35])?
The value was 3 (weed kill ratio 40% or more, less than 70%).

What about the “M (fig-leafed goosefoot) weedkilling efficacy grade” value (fig-leafed goosefoot [36]) of the same compound?
Its value is 5 (weed kill ratio 90% or more, (practically complete withering)).

Source: patent publication US9738634B2, “Heterocyclic amide compound and herbicide” (SYNGENTA PARTICIPATIONS AG, priority 2013, dated 2017)
